Laboratory results taken from US20190315823A1, “SMALL CATIONIC ANTI-BIOFILM AND IDR PEPTIDES” (priority 2013, published 2019).
Ends that are not written are not given here.

Key:
[1] = system: methicillin resistant Staphylococcus aureus (MRSA) biofilm; settings: approximate peptide concentration […] (around 3 μg/ml); compared to untreated samples
Procedure, shortened: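 Peptide was present from inoculation onward, with bacteria seeded at 1/100 from overnight cultures into BM2 biofilm medium or Luria Broth. Crystal violet staining of surface-attached cells (A595) quantified biofilm reduction at 22–46 h. K. pneumoniae was additionally screened in a real-time Bioflux flow device for some peptides.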

[2] = system: human peripheral blood mononuclear cells (MCP-1); assay: SPOT-synthesized derivative screen: production of chemokine MCP-1; assay type: cell-based; settings: Table 12, No LPS, human PBMC, peptide at ~18-24 μM; for MCP1: background subtracted 139 (HH2 derivatives), 170 (1018 derivatives), 242 (1002 and hybrid peptides) pg/ml
Procedure, shortened: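 MCP-1 was quantified by capture ELISA in cleared culture supernatants of treated human peripheral blood mononuclear cells. Cells came from heparinized volunteer blood via Ficoll gradient and were seeded at 0.75 to 1×10^6 cells/ml (37 °C, 5% CO2).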

[3] = system: LPS-stimulated human peripheral blood mononuclear cells (IL1-β); assay type: cell-based; settings: Table 12, cells stimulated with 10 ng/ml LPS; for IL1β Production: LPS alone 1313 (HH2 derivatives), 1927 (1018 derivatives), 2455 (1002 and hybrid peptides) pg/ml

1018-V11: single substituted 1018 peptide (VRLIVAVRIWVR-NH2) [Peptide 1018-V11]
% Biofilm inhibition [1]: 29%
Fold increase in MCP1 cf. untreated cells [2]: 1.0
MCP1 [2]: 2 pg/mL
Fold change in IL1β relative to no peptide LPS stimulated cells [3]: 0.94
IL1β Production [3]: 1240 pg/mL

1018-V12: single substituted 1018 peptide (VRLIVAVRIWRV-NH2) [Peptide 1018-V12]
% Biofilm inhibition [1]: 56%
Fold increase in MCP1 cf. untreated cells [2]: 1.3
MCP1 [2]: 56 pg/mL
Fold change in IL1β relative to no peptide LPS stimulated cells [3]: 0.51
IL1β Production [3]: 673 pg/mL

1018-W1: single substituted 1018 peptide (WRLIVAVRIWRR-NH2) [Peptide 1018-W1]
% Biofilm inhibition [1]: 68%
Fold increase in MCP1 cf. untreated cells [2]: 5.0
MCP1 [2]: 684 pg/mL
Fold change in IL1β relative to no peptide LPS stimulated cells [3]: 0.16
IL1β Production [3]: 204 pg/mL

1018-W2: single substituted 1018 peptide (VWLIVAVRIWRR-NH2) [Peptide 1018-W2]
% Biofilm inhibition [1]: 68%
Fold increase in MCP1 cf. untreated cells [2]: 1.5
MCP1 [2]: 83 pg/mL
Fold change in IL1β relative to no peptide LPS stimulated cells [3]: 0.73
IL1β Production [3]: 962 pg/mL

1018-W3: single substituted 1018 peptide (VRWIVAVRIWRR-NH2) [Peptide 1018-W3]
% Biofilm inhibition [1]: 66%
Fold increase in MCP1 cf. untreated cells [2]: 6.6
MCP1 [2]: 953 pg/mL
Fold change in IL1β relative to no peptide LPS stimulated cells [3]: 0.10
IL1β Production [3]: 127 pg/mL

1018-W4: single substituted 1018 peptide (VRLWVAVRIWRR-NH2) [Peptide 1018-W4]
% Biofilm inhibition [1]: 67%
Fold increase in MCP1 cf. untreated cells [2]: 1.2
MCP1 [2]: 29 pg/mL
Fold change in IL1β relative to no peptide LPS stimulated cells [3]: 0.14
IL1β Production [3]: 182 pg/mL

1018-W5: single substituted 1018 peptide (VRLIWAVRIWRR-NH2) [Peptide 1018-W5]
% Biofilm inhibition [1]: 55%
Fold increase in MCP1 cf. untreated cells [2]: 0.8
MCP1 [2]: -28 pg/mL
Fold change in IL1β relative to no peptide LPS stimulated cells [3]: 0.10
IL1β Production [3]: 127 pg/mL

1018-W6: single substituted 1018 peptide (VRLIVWVRIWRR-NH2) [Peptide 1018-W6]
% Biofilm inhibition [1]: 75%
Fold increase in MCP1 cf. untreated cells [2]: 0.7
MCP1 [2]: -54 pg/mL
Fold change in IL1β relative to no peptide LPS stimulated cells [3]: 0.24
IL1β Production [3]: 310 pg/mL

1018-W7: single substituted 1018 peptide (VRLIVAWRIWRR-NH2) [Peptide 1018-W7]
% Biofilm inhibition [1]: 55%
Fold increase in MCP1 cf. untreated cells [2]: 0.8
MCP1 [2]: -28 pg/mL
Fold change in IL1β relative to no peptide LPS stimulated cells [3]: 0.37
IL1β Production [3]: 483 pg/mL

1018-W8: single substituted 1018 peptide (VRLIVAVWIWRR-NH2) [Peptide 1018-W8]
% Biofilm inhibition [1]: 43%
Fold increase in MCP1 cf. untreated cells [2]: 0.8
MCP1 [2]: -28 pg/mL
Fold change in IL1β relative to no peptide LPS stimulated cells [3]: 0.34
IL1β Production [3]: 448 pg/mL
